US20210145930A1, “MULTIPLE LAYER ARTICLE WITH INTERACTIVE REINFORCEMENTS LINEAR RIBBON FIBER REINFORCEMENT FOR COMPOSITE FORMS” (NeuroTheranostics, Inc., priority 2018, published 2021)
No end group written: not given here.

Assays:
Type in all cases: in vivo, Sprague-Dawley rats
[1] = test system: rats with mild-moderate TBI; assay: Endothelial barrier antigen (EBA) staining, vascular density after controlled cortical impact TBI; conditions: 3 mg/kg i.v. at 24 h and 48 h post injury; 25 days after TBI; vs saline-treated rats, p<0.05, n=7
Description: (§1) A large part of the functional recovery that occurs after brain injury is due to neurogenesis, and brain plasticity caused by anatomical and functional reorganization of the CNS. To determine the effect of SEQ ID NO. 5 on neurogenesis, the brain blocks containing the hippocampus were processed for vibratome sections (100 μm) followed by double fluorescence staining for endogenous cellular proliferation {BrdU positive cells (red) and MAP 2 (green) to identify newborn neurons in the ipsilateral dentate gyrus (DG) of the hippocampus. Five sections with 100-μm intervals from the dorsal dentate gyms were used for immunohistochemical staining with the same antibody. […] Quantitative measurements of immunostaining were performed by an observer blinded to the individual treatment status of the animals. […] The cells with BrdU that clearly localized to the nucleus were counted as BrdU-positive cells. […] The fluorescent images were analyzed with a Bio-Rad MRC 1024 (argon and krypton) laser-scanning confocal imaging system mounted onto a Zeiss microscope (Bio-Rad, Cambridge, Mass.). […]
Endothelial barrier antigen (EBA)-staining has been used to identify vascular structure in the brain after ischemic brain injury. […] 5-therapy on vessel proliferation and vascular density, quantitative measurement of Endothelial Barrier Antigen (EBA) staining was performed. […]

[2] = test system: rats with mild-moderate TBI; assay: Modified foot-fault test after controlled cortical impact TBI; conditions: 3 mg/kg i.v. at 24 h and 48 h post injury; up to 25 days after TBI; vs control group
Experimental: (§2) A controlled cortical impact (CCI) device was used to induce mild-moderate TBI. Adult male (280-300 g) Sprague-Dawley rats (Harlan: Indianapolis, Ind.) were anesthetized intraperitoneally with xylazine (10 mg/kg body weight) and ketamine (40 mg/kg body weight). Rectal temperature was maintained at 37° C. using a feedback-regulated water-heating pad. The surgical area of the skull was prepared using germicidal povidone-iodine scrub followed by a 70% isopropyl alcohol rinse combinations, being careful to scrub from the center of the surgical site toward the periphery. Rats were placed in a stereotactic frame. […] Velocity was measured with a linear velocity displacement transducer. […] Neurological functional outcome was measured by the modified neurological severity score (mNSS), Morris Water Maze (MWM) and foot-fault test. mNSS is a composite of the motor (muscle status, abnormal movement), sensory (visual, tactile and proprioceptive) and reflex tests. […] If the animal reached the platform within 90 sec, the percentage of time traveled within the NE (correct) quadrant was calculated relative to the total amount of time spent swimming before reaching the platform and employed for statistical analysis. […] Rats were monitored continuously while in the tank. […] When animals inaccurately place a limb, the limb falls through one of the openings in the grid, which is counted as a foot fault. […]

[3] = test system: rats with mild-moderate TBI; assay: BrdU immunostaining, cell proliferation after controlled cortical impact TBI; conditions: 3 mg/kg i.v. at 24 h and 48 h post injury; examined 25 days after TBI; vs saline controls, p<0.05, n=7
Experimental: BrdU, an analog of thymidine, can be incorporated into the newly synthesized DNA of replicating cells during the S phase of the cell cycle, substituting for thymidine during DNA replication. BrdU immunostaining is commonly used to detect cell proliferation. To determine the effect of SEQ ID NO. 5 (3 mg/kg, i.v.) or saline on cell proliferation, BrdU (100mg/kg) was injected i.p. daily starting at day 1 after mild-moderate TBI and continued for 10 days after TBI to label newly generated cells. Twenty-five days after TBI, the animals were anesthetized and sacrificed. The brains were fixed in 4% paraformaldehyde and cut into seven equally spaced 2-mm coronal blocks using a rat brain matrix. […] 5-treated rats examined at 25 days after TBI, compared to the saline controls. […]
A large part of the functional recovery that occurs after brain injury is due to neurogenesis, and brain plasticity caused by anatomical and functional reorganization of the CNS. […] 5 on neurogenesis, the brain blocks containing the hippocampus were processed for vibratome sections (100 μm) followed by double fluorescence staining for endogenous cellular proliferation {BrdU positive cells (red) and MAP 2 (green) to identify newborn neurons in the ipsilateral dentate gyrus (DG) of the hippocampus. […] Quantitative measurements of immunostaining were performed by an observer blinded to the individual treatment status of the animals. […]

[4] = test system: rats with mild-moderate TBI; assay: BrdU/MAP-2 double fluorescence staining, neurogenesis after controlled cortical impact TBI; conditions: 3 mg/kg i.v. at 24 h and 48 h post injury; 25 days post injury; vs saline controls, p<0.05, n=7
Description: as §1, with “antibody. Sections were blocked in a Tris-buffered saline solution containing 5% normal goat serum, 1% BSA and 0.05% Tween-20.” for “antibody.”
A controlled cortical impact (CCI) device was used to induce mild-moderate TBI. […] Velocity was measured with a linear velocity displacement transducer. […]

[5] = test system: rats with mild-moderate TBI; assay: Morris Water Maze (MWM) after controlled cortical impact TBI; conditions: 3 mg/kg i.v. at 24 h and 48 h post injury; Days 23 to 25 post-injury; vs saline-treated group, P<0.05
Experimental: as §2

[6] = test system: rats with mild-moderate TBI; assay: Modified neurological severity score (mNSS) after controlled cortical impact TBI; conditions: 3 mg/kg i.v. at 24 h and 48 h post injury; Days 14-25 after TBI; vs saline-treated group, P<0.05
Experimental: as §2

DPMSSTYIEELGKREVTIPPKYVALLPAVLLALLAP [SEQ ID NO. 5]
density (vessels/mm2) of EBA positive vessels in the injured cortex area [1]: significantly increased | neurological function assessed by the footfault test [2]: no significant improvement | number of BrdU-positive cells in the ipsilateral cortex and hippocampus [3]: significantly increased | number of newborn neurons (BrdU/MAP-2 positive) in the ipsilateral DG, per mm^2 [4]: significantly increased | spatial learning and memory retention (percentage of time spent in the correct quadrant, MWM) [5]: significant improvement | sensorimotor scores (mNSS) [6]: significantly improved
